Experimental data as given in PubChem BioAssay AID248 (DTP/NCI, 2004).
“And” between values parts separate entries of the source, which are not always exact repeats. Equal entries are not always repeated. Toxic doses and inconclusive results are not listed.

System: L1210 leukemia ip in BDF1 mice, survival T/C
Test: NCI In Vivo Anticancer Drug Screen. Data for tumor model L1210 Leukemia (intraperitoneal) in B6D2F1 (BDF1) mice
Settings: endpoint: mean survival time, higher = longer survival
Outline: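 Transplanted-tumor mice were given test agent; controls received vehicle only. Survival readings from the two groups were divided (treated over control).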

[1] = dose: 100.0 mg/kg/injection, schedule: Q04DX003 (ip), vehicle: saline with Tween-80
[2] = dose: 200.0 mg/kg/injection, schedule: Q04DX003 (ip), vehicle: saline with Tween-80
[3] = dose: 400.0 mg/kg/injection, schedule: Q04DX003 (ip), vehicle: saline with Tween-80
[4] = dose: 25.0 mg/kg/injection, schedule: Q01DX009 (ip), vehicle: saline
[5] = dose: 50.0 mg/kg/injection, schedule: Q01DX009 (ip), vehicle: saline
[6] = dose: 100.0 mg/kg/injection, schedule: Q01DX009 (ip), vehicle: saline
[7] = dose: 100.0 mg/kg/injection, schedule: Q04DX003 (ip), vehicle: Klucel (hydroxypropylcellulose) (HPC)
[8] = dose: 200.0 mg/kg/injection, schedule: Q04DX003 (ip), vehicle: Klucel (hydroxypropylcellulose) (HPC)
[9] = dose: 400.0 mg/kg/injection, schedule: Q04DX003 (ip), vehicle: Klucel (hydroxypropylcellulose) (HPC)
[10] = dose: 50.0 mg/kg/injection, schedule: Q01DX009 (ip), vehicle: Klucel (hydroxypropylcellulose) (HPC)
[11] = dose: 100.0 mg/kg/injection, schedule: Q01DX009 (ip), vehicle: Klucel (hydroxypropylcellulose) (HPC)
[12] = dose: 100.0 mg/kg/injection, schedule: Q04DX002 (ip), vehicle: saline with Tween-80
[13] = dose: 200.0 mg/kg/injection, schedule: Q04DX002 (ip), vehicle: saline with Tween-80
[14] = dose: 400.0 mg/kg/injection, schedule: Q04DX002 (ip), vehicle: saline with Tween-80
[15] = dose: 100.0 mg/kg/injection, schedule: Q04DX003 (ip), vehicle: saline
[16] = dose: 400.0 mg/kg/injection, schedule: Q04DX003 (ip), vehicle: saline
[17] = dose: 100.0 mg/kg/injection, schedule: Q01DX001 (ip), vehicle: saline with Tween-80
[18] = dose: 200.0 mg/kg/injection, schedule: Q01DX001 (ip), vehicle: saline with Tween-80
[19] = dose: 400.0 mg/kg/injection, schedule: Q01DX001 (ip), vehicle: saline with Tween-80
[20] = dose: 200.0 mg/kg/injection, schedule: Q01DX009 (ip), vehicle: Klucel (hydroxypropylcellulose) (HPC)

Compound: O=Cc1cc([N+](=O)[O-])ccc1OCC(=O)O
- T/C [1]: 103 % of control
- T/C [2]: 92 % of control
- T/C [3]: 93 % of control

Compound: CC(=O)Nc1ccc(/C=N/Nc2c3ccccc3nc3ccccc23)cc1
- T/C (dose: 100.0 mg/kg/injection, schedule: Q01DX001 (ip), vehicle: saline): 108 % of control

Compound: CC(NC(=O)C(N)CSC(c1ccccc1)(c1ccccc1)c1ccccc1)C(=O)O (stereo unspecified)
- T/C (dose: 25.0 mg/kg/injection, schedule: Q01DX009 (ip), vehicle: other): 121 % of control
- T/C [4]: 114 % of control
- T/C [5]: 122 % of control
- T/C [6]: 152 % of control
- T/C (dose: 200.0 mg/kg/injection, schedule: Q01DX009 (ip), vehicle: other): 88 % of control
- T/C (dose: 200.0 mg/kg/injection, schedule: Q01DX009 (ip), vehicle: saline): 111 % of control

Compound: NC(=O)CC1CCCCC1
- T/C [7]: 97 % of control
- T/C [8]: 105 % of control
- T/C [9]: 103 % of control

Compound: CCNC(C)(C)C(Cl)c1ccc(Cl)s1 (stereo unspecified)
- T/C (dose: 25.0 mg/kg/injection, schedule: Q01DX009 (ip), vehicle: Klucel (hydroxypropylcellulose) (HPC)): 90 % of control
- T/C (dose: 25.0 mg/kg/injection, schedule: Q04DX003 (ip), vehicle: Klucel (hydroxypropylcellulose) (HPC)): 101 % of control
- T/C [10]: 89 % of control
- T/C (dose: 50.0 mg/kg/injection, schedule: Q04DX003 (ip), vehicle: Klucel (hydroxypropylcellulose) (HPC)): 97 % of control
- T/C [11]: 90 % of control
- T/C [7]: 101 % of control and 102 % of control

Compound: COc1n[nH]c(N)n1
- T/C [12]: 122 % of control
- T/C [13]: 98 % of control
- T/C [14]: 105 % of control

Compound: O=C1Cc2cccc(=O)c(O)c2C(=O)O1
- T/C [4]: 97 % of control and 90 % of control
- T/C [5]: 97 % of control and 92 % of control
- T/C [6]: 96 % of control and 89 % of control
- T/C [15]: 111 % of control and 100 % of control
- T/C (dose: 200.0 mg/kg/injection, schedule: Q04DX003 (ip), vehicle: saline): 97 % of control
- T/C [16]: 89 % of control

Compound: CCCCCCCCCCCCOC(=O)C[n+]1cccc(C(=O)NC)c1
- T/C (dose: 12.5 mg/kg/injection, schedule: Q04DX003 (ip), vehicle: saline with Tween-80): 101 % of control
- T/C (dose: 25.0 mg/kg/injection, schedule: Q04DX003 (ip), vehicle: saline with Tween-80): 97 % of control
- T/C (dose: 50.0 mg/kg/injection, schedule: Q04DX003 (ip), vehicle: saline with Tween-80): 95 % of control

Compound: Nc1nc(N)c(-c2ccc(Cl)cc2)c(CNc2ccc(/C=C/C3(CCl)OCCO3)cc2)n1
- T/C [17]: 92 % of control
- T/C [18]: 100 % of control
- T/C [19]: 96 % of control

Compound: Brc1ccc2[nH]c3c(c2c1)CSCC3
- T/C [17]: 95 % of control
- T/C [18]: 111 % of control
- T/C [19]: 108 % of control

Compound: CCCCCCCCCCC(=O)OCC#CC#CCOC(=O)CCCCCCCCCC
- T/C [11]: 97 % of control
- T/C [7]: 103 % of control
- T/C [20]: 98 % of control
- T/C [8]: 92 % of control
- T/C (dose: 400.0 mg/kg/injection, schedule: Q01DX009 (ip), vehicle: Klucel (hydroxypropylcellulose) (HPC)): 101 % of control
- T/C [9]: 91 % of control

Compound: c1nc(NCCc2cnc[nH]2)c2[nH]cnc2n1
- T/C (dose: 100.0 mg/kg/injection, schedule: Q01DX001 (ip), vehicle: carboxymethylcellulose (CMC)): 95 % of control
- T/C (dose: 200.0 mg/kg/injection, schedule: Q01DX001 (ip), vehicle: carboxymethylcellulose (CMC)): 90 % of control
- T/C (dose: 400.0 mg/kg/injection, schedule: Q01DX001 (ip), vehicle: carboxymethylcellulose (CMC)): 97 % of control

Compound: O=C(O)CCc1nn(-c2ccccc2)c(=O)c2ccccc12
- T/C (dose: 100.0 mg/kg/injection, schedule: Q04DX002 (ip), vehicle: Klucel (hydroxypropylcellulose) (HPC)): 106 % of control
- T/C (dose: 200.0 mg/kg/injection, schedule: Q04DX002 (ip), vehicle: Klucel (hydroxypropylcellulose) (HPC)): 95 % of control

Compound: CCCCCCNP(=O)(Oc1ccccc1)Oc1ccccc1
- T/C [7]: 97 % of control
- T/C [8]: 97 % of control
- T/C [9]: 105 % of control

Compound: CCC(C)C(C(=O)OCCN(CC)CC)c1ccccc1 (stereo unspecified)
- T/C [10]: 95 % of control
- T/C [11]: 97 % of control
- T/C [7]: 96 % of control
- T/C [20]: 104 % of control
- T/C [8]: 91 % of control

Compound: Cc1cc(=O)c2c(C)ccc(C)c2[nH]1
- T/C (dose: 100.0 mg/kg/injection, schedule: Q01DX001 (ip), vehicle: other): 95 % of control
- T/C (dose: 200.0 mg/kg/injection, schedule: Q01DX001 (ip), vehicle: other): 91 % of control
- T/C (dose: 400.0 mg/kg/injection, schedule: Q01DX001 (ip), vehicle: other): 98 % of control

Compound: O=S(=O)(/C=C/c1ccccc1)c1ccc2ccccc2c1
- T/C (dose: 100.0 mg/kg/injection, schedule: Q01DX001 (ip), vehicle: acetone): 97 % of control
- T/C (dose: 100.0 mg/kg/injection, schedule: Q01DX009 (ip), vehicle: acetone): 92 % of control
- T/C (dose: 100.0 mg/kg/injection, schedule: Q04DX003 (ip), vehicle: acetone): 102 % of control
- T/C (dose: 200.0 mg/kg/injection, schedule: Q01DX001 (ip), vehicle: acetone): 93 % of control
- T/C (dose: 200.0 mg/kg/injection, schedule: Q01DX009 (ip), vehicle: acetone): 92 % of control
- T/C (dose: 200.0 mg/kg/injection, schedule: Q04DX003 (ip), vehicle: acetone): 105 % of control
- T/C (dose: 400.0 mg/kg/injection, schedule: Q01DX001 (ip), vehicle: acetone): 90 % of control
- T/C (dose: 400.0 mg/kg/injection, schedule: Q01DX009 (ip), vehicle: acetone): 94 % of control
- T/C (dose: 400.0 mg/kg/injection, schedule: Q04DX003 (ip), vehicle: acetone): 102 % of control

Compound: C#CCOC(=O)Nc1ccccc1
- T/C [10]: 100 % of control
- T/C [11]: 100 % of control
- T/C [20]: 107 % of control

Compound: CC1(C)SCC(C(=O)N2CCCC2C(=O)OC2CCCCC2)N1C=O (stereo unspecified)
- T/C [15]: 92 % of control
- T/C [16]: 97 % of control

Compound: Cc1c2c(nn1-c1ccccn1)C(=O)C=C(Nc1ccccc1)C2=O
- T/C (dose: 12.5 mg/kg/injection, schedule: Q04DX002 (ip), vehicle: Klucel (hydroxypropylcellulose) (HPC)): 92 % of control
- T/C (dose: 25.0 mg/kg/injection, schedule: Q04DX002 (ip), vehicle: Klucel (hydroxypropylcellulose) (HPC)): 96 % of control
- T/C (dose: 50.0 mg/kg/injection, schedule: Q04DX002 (ip), vehicle: Klucel (hydroxypropylcellulose) (HPC)): 92 % of control
- T/C (dose: 400.0 mg/kg/injection, schedule: Q04DX002 (ip), vehicle: Klucel (hydroxypropylcellulose) (HPC)): 90 % of control

Compound: CN(C)N=Nc1ccc([N+](=O)[O-])cc1Cl
- T/C [1]: 101 % of control
- T/C (dose: 134.0 mg/kg/injection, schedule: Q01DX009 (ip), vehicle: saline with Tween-80): 113 % of control
- T/C (dose: 200.0 mg/kg/injection, schedule: Q01DX009 (ip), vehicle: saline with Tween-80): 115 % of control
- T/C [2]: 105 % of control
- T/C [3]: 112 % of control

Compound: O=C(c1ccccc1)c1ccccc1
- T/C [10]: 96 % of control
- T/C (dose: 75.0 mg/kg/injection, schedule: Q04DX003 (ip), vehicle: saline): 100 % of control
- T/C [11]: 101 % of control
- T/C (dose: 150.0 mg/kg/injection, schedule: Q04DX003 (ip), vehicle: saline): 100 % of control
- T/C [20]: 97 % of control
- T/C (dose: 300.0 mg/kg/injection, schedule: Q04DX003 (ip), vehicle: saline): 104 % of control

Compound: CC(C)(C(=O)OCCOCCCl)c1cccc2ccccc12
- T/C [12]: 113 % of control
- T/C [13]: 111 % of control
- T/C [14]: 95 % of control
